Assay results as given in patent US4925649A, “Radioiodinated diacylglycerol analogues and methods of use” (The University of Michigan, priority 1987, dated 1990).

Tested on: intracellular PK-C
Test: [3H]PDBu binding to intact HL-60 cells
Type: cell-based, human
Settings: 37° C., 30 minutes, FIG. 9, compared with naturally occurring diacylglycerol DiC8
Protocol: The diacylglycerol composition under investigation was stored in chloroform at -20° C. Prior to use, the diacylglycerol was dried under nitrogen and sonicated in RPMI-1640 growth media. HL-60 cells, derived from a human leukemia cell line, were cultured in RPMI-1640 growth media containing 10% horse serum. The cells were placed in fresh serum-containing growth media 24 hours prior to the experiment. Then, cells in log phase growth were placed in normal serum containing growth media with 20 mM HEPES buffer (pH 7.4) at a concentration of 5×10^6 cells/ml. The cells were incubated at 37° C. in 5% CO2 /air in the presence of [^3 H]PDBu and various concentrations of diacylglycerol.
Binding reactions were stopped after 30 minutes by filtering the cells over Whatman glass fiber GF/C filters and rinsing with cold phosphate buffered saline (pH 7.4). The filters were then dried and counted with a scintillation counter. Nonspecific binding was determined by adding 2 μM non-tritiated phorbol diester to parallel binding reactions. Specific [^3 H]PDBu binding was calculated by subtracting nonspecific [^3 H]PDBu from the total. All binding data are expressed in terms of specific binding. Specific binding typically represented 80% of the total.

SMILES: CCCCCCCC(=O)OCC(CO)OC(=O)CCc1cccc(I)c1 (racemic) [OIPG, 1-octanoyl-2-[3-(m-iodophenyl)propanoyl]-rac-glycerol]
- diacylglycerol inhibition of [3H]PDBu binding in intact HL-60 cells: capable of entering intact cells and binding to intracellular PK-C in a manner similar to a naturally occurring diacylglycerol
